Results from patent publication US20020123503A1, “Cabergoline pharmaceutical compositions and methods of use thereof” (priority 2000, published 2002).

Experiment: Chemical stability of cabergoline and its tablets
Format: physicochemical
Details: normal wet granulation techniques

degradation of the active ingredient: did degrade
Compound: C=CCN1C[C@H](C(=O)N(CCCN(C)C)C(=O)NCC)C[C@@H]2c3cccc4[nH]cc(c34)C[C@H]21 [cabergoline, 1((6-allylergolin-8.beta,-yl)-carbony.)-1-(3-(dimethylamino)propyl)-3ethylurea]
